Columns and labels:
Assay in all cases: Kinase inhibitor library screening, PrestoBlue cell viability, 1 or 10 μM, 72 h
501Mel cells (parental) = details: 72 h; for Cell viability in kinase inhibitor library screening, 501Mel Parental, 1μΜ / Cell viability in kinase inhibitor library screening, 501Mel Parental, 10μΜ: in %; for viability at 1 µM / viability at 10 µM: Homo sapiens; for viability at 1 µM: read-out: cell viability, 501Mel Parental, 1μΜ; for viability at 10 µM: read-out: cell viability, 501Mel Parental, 10μΜ
How it was run: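 PrestoBlue viability readout after 72 h exposure to each inhibitor at 1 or 10 μM, reported relative to untreated cells as % viability. Lines tested: sensitive parental plus derivatives resistant to Vemurafenib (XP) or Dabrafenib (GP), each run at least in duplicate.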

[1] = tested on: 501Mel-GP cells (Dabrafenib-resistant); details: 72 h; for Cell viability in kinase inhibitor library screening, 501Mel GP, 1μΜ / Cell viability in kinase inhibitor library screening, 501Mel GP, 10μΜ: in %; for viability at 1 µM / viability at 10 µM: Homo sapiens; for viability at 1 µM: read-out: cell viability, 501Mel GP, 1μΜ; for viability at 10 µM: read-out: cell viability, 501Mel GP, 10μΜ
[2] = tested on: 501Mel-XP cells (Vemurafenib-resistant); details: 72 h; for Cell viability in kinase inhibitor library screening, 501Mel XP, 1μΜ / Cell viability in kinase inhibitor library screening, 501Mel XP, 10μΜ: in %; for viability at 1 µM / viability at 10 µM: Homo sapiens; for viability at 1 µM: read-out: cell viability, 501Mel XP, 1μΜ; for viability at 10 µM: read-out: cell viability, 501Mel XP, 10μΜ
A375 cells (parental) = details: for Cell viability in kinase inhibitor library screening, A375 Parental, 10μΜ / Cell viability in kinase inhibitor library screening, A375 Parental, 1μΜ: 72 h; for viability at 1 µM / viability at 10 µM: Homo sapiens, A-375, 72 h; for viability at 1 µM: read-out: cell viability, A375 Parental, 1μΜ; for viability at 10 µM: read-out: cell viability, A375 Parental, 10μΜ
[3] = tested on: A375-GP cells (Dabrafenib-resistant); details: for Cell viability in kinase inhibitor library screening, A375 GP, 1μΜ / Cell viability in kinase inhibitor library screening, A375 GP, 10μΜ: 72 h; for viability at 1 µM / viability at 10 µM: Homo sapiens, A-375, 72 h; for viability at 1 µM: read-out: cell viability, A375 GP, 1μΜ; for viability at 10 µM: read-out: cell viability, A375 GP, 10μΜ
[4] = tested on: A375-XP cells (Vemurafenib-resistant); details: for Cell viability in kinase inhibitor library screening, A375 XP, 1μΜ / Cell viability in kinase inhibitor library screening, A375 XP, 10μΜ: 72 h; for viability at 1 µM / viability at 10 µM: Homo sapiens, A-375, 72 h; for viability at 1 µM: read-out: cell viability, A375 XP, 1μΜ; for viability at 10 µM: read-out: cell viability, A375 XP, 10μΜ
IGR37 cells (parental) = details: for Cell viability in kinase inhibitor library screening, IGR37 Parental, 1μΜ / Cell viability in kinase inhibitor library screening, IGR37 Parental, 10μΜ: 72 h, in %; for viability at 1 µM / viability at 10 µM: Homo sapiens, IGR-37, 72 h; for viability at 1 µM: read-out: cell viability, IGR37 Parental, 1μΜ; for viability at 10 µM: read-out: cell viability, IGR37 Parental, 10μΜ
[5] = tested on: IGR37-GP cells (Dabrafenib-resistant); details: for Cell viability in kinase inhibitor library screening, IGR37 GP, 10μΜ / Cell viability in kinase inhibitor library screening, IGR37 GP, 1μΜ: 72 h; for Cell viability in kinase inhibitor library screening, IGR37 GP, 1μΜ: in %; for viability at 1 µM / viability at 10 µM: Homo sapiens, IGR-37, 72 h; for viability at 1 µM: read-out: cell viability, IGR37 GP, 1μΜ; for viability at 10 µM: read-out: cell viability, IGR37 GP, 10μΜ
[6] = tested on: IGR37-XP cells (Vemurafenib-resistant); details: for Cell viability in kinase inhibitor library screening, IGR37 XP, 10μΜ / Cell viability in kinase inhibitor library screening, IGR37 XP, 1μΜ: 72 h; for Cell viability in kinase inhibitor library screening, IGR37 XP, 1μΜ: in %; for viability at 1 µM / viability at 10 µM: Homo sapiens, IGR-37, 72 h; for viability at 1 µM: read-out: cell viability, IGR37 XP, 1μΜ; for viability at 10 µM: read-out: cell viability, IGR37 XP, 10μΜ

SMILES | Cell viability in kinase inhibitor library screening, 501Mel Parental, 1μΜ (501Mel cells (parental)) | Cell viability in kinase inhibitor library screening, 501Mel Parental, 10μΜ (501Mel cells (parental)) | Cell viability in kinase inhibitor library screening, 501Mel GP, 1μΜ [1] | Cell viability in kinase inhibitor library screening, 501Mel GP, 10μΜ [1] | Cell viability in kinase inhibitor library screening, 501Mel XP, 1μΜ [2] | Cell viability in kinase inhibitor library screening, 501Mel XP, 10μΜ [2] | Cell viability in kinase inhibitor library screening, A375 Parental, 10μΜ (A375 cells (parental)) | Cell viability in kinase inhibitor library screening, A375 Parental, 1μΜ (A375 cells (parental)) | Cell viability in kinase inhibitor library screening, A375 GP, 1μΜ [3] | Cell viability in kinase inhibitor library screening, A375 GP, 10μΜ [3] | Cell viability in kinase inhibitor library screening, A375 XP, 1μΜ [4] | Cell viability in kinase inhibitor library screening, A375 XP, 10μΜ [4] | Cell viability in kinase inhibitor library screening, IGR37 Parental, 1μΜ (IGR37 cells (parental)) | Cell viability in kinase inhibitor library screening, IGR37 Parental, 10μΜ (IGR37 cells (parental)) | Cell viability in kinase inhibitor library screening, IGR37 GP, 10μΜ [5] | Cell viability in kinase inhibitor library screening, IGR37 GP, 1μΜ [5] | Cell viability in kinase inhibitor library screening, IGR37 XP, 10μΜ [6] | Cell viability in kinase inhibitor library screening, IGR37 XP, 1μΜ [6] | viability at 1 µM (501Mel cells (parental)) | viability at 10 µM (501Mel cells (parental)) | also measured
COc1ccc(-c2ccc3ncc4c(c3c2)n(-c2ccc(N3CCNCC3)c(C(F)(F)F)c2)c(=O)n4C)cn1 [NVP-BGT226] | 1.2 | 1.1 | 0.9 | 0.145 | 1.5 | 1.1 | 0.952 | 9.1 | 7.1 | 0.9 | 7.2 | 1.0 | 2.3 | -1.8 | 2.6% | 2.9 | 1.4% | 2.5 | – | – | –
COC(=O)Nc1ccc(-c2nc(N3CCOCC3)c3cnn(C4CCN(C(=O)OC)CC4)c3n2)cc1 [WYE-354] | 85.1 | 21.3 | 76.5 | 16.5 | 63.3 | 8.7 | 24.6 | 84.7 | 80.7 | 21.5 | 76.7 | 19.6 | 82.1 | 28.9 | 31.6% | 85.9 | 10.6% | 82.2 | – | – | –
CN(C)C/C=C/C(=O)Nc1cc2c(Nc3ccc(F)c(Cl)c3)ncnc2cc1O[C@H]1CCOC1 [Afatinib (BIBW2992)] | – | – | – | – | – | – | – | – | – | – | – | – | – | – | – | – | – | – | 102% | 1.5% | viability at 1 µM [1]: 98.8%; viability at 10 µM [1]: 6.2%; viability at 1 µM [2]: 88.6%; viability at 10 µM [2]: -0.4%; viability at 1 µM (A375 cells (parental)): 100%; viability at 10 µM (A375 cells (parental)): 13.6%; viability at 1 µM [3]: 94.1%; viability at 10 µM [3]: 12.6%; viability at 1 µM [4]: 102%; viability at 10 µM [4]: 4.1%; viability at 1 µM (IGR37 cells (parental)): 103%; viability at 10 µM (IGR37 cells (parental)): 44.5%; viability at 1 µM [5]: 96.9%; viability at 10 µM [5]: 20.9%; viability at 1 µM [6]: 94.7%; viability at 10 µM [6]: 10%
Cn1cc(C2=C(c3ccc(Cl)cc3Cl)C(=O)NC2=O)c2ccccc21 [SB 216763] | – | – | – | – | – | – | – | – | – | – | – | – | – | – | – | – | – | – | 101% | 82.6% | viability at 1 µM [1]: 106%; viability at 10 µM [1]: 74.1%; viability at 1 µM [2]: 96.9%; viability at 10 µM [2]: 73.3%; viability at 1 µM (A375 cells (parental)): 111%; viability at 10 µM (A375 cells (parental)): 68.1%; viability at 1 µM [3]: 104%; viability at 10 µM [3]: 67%; viability at 1 µM [4]: 109%; viability at 10 µM [4]: 79.9%; viability at 1 µM (IGR37 cells (parental)): 116%; viability at 10 µM (IGR37 cells (parental)): 99%; viability at 1 µM [5]: 105%; viability at 10 µM [5]: 88.4%; viability at 1 µM [6]: 111%; viability at 10 µM [6]: 65.4%
